What was measured:
[1] = test system: corn; assay: Test A pre-/postemergence herbicide test; type: in vivo, Zea mays
In short: (§1)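 Visual 0–100 ratings (100 = complete control) made about 10 days after treatment, greenhouse-held plants compared with untreated controls. Treatments: postemergence sprays on one- to two-leaf plants (2–10 cm tall) and preemergence directed soil sprays after planting in loam–sand, chemicals formulated in non-phytotoxic solvent containing surfactant.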

[2] = test system: sedge, umbrella; assay: Test C flooded paddy test; type: in vivo, Cyperus difformis; settings: Flood
Description: (§2) Plant species in the flooded paddy test consisted of rice (Oryza sativa), sedge, umbrella (small-flower umbrella sedge, Cyperus difformis), ducksalad (Heteranthera limosa), and barnyardgrass (Echinochloa crus-galli) grown to the 2-leaf stage for testing. At time of treatment, test pots were flooded to 3 cm above the soil surface, treated by application of test compounds directly to the paddy water, and then maintained at that water depth for the duration of the test. Treated plants and controls were maintained in a greenhouse for 13 to 15 days, after which time all species were compared to controls and visually evaluated. Plant response ratings, summarized in Table C, are based on a scale of 0 to 100 where 0 is no effect and 100 is complete control. A dash (-) response means no test result.

[3] = test system: rice; assay: Test C flooded paddy test; type: in vivo, Oryza sativa; settings: Flood
Description: as §2

[4] = test system: crabgrass, large; assay: Test A pre-/postemergence herbicide test; type: in vivo, Digitaria sanguinalis; settings: 1000 g ai/ha
In short: as §1

[5] = test system: barnyardgrass; assay: Test A pre-/postemergence herbicide test; type: in vivo, Echinochloa crus-galli
In short: as §1

[6] = test system: wheat; assay: Test A pre-/postemergence herbicide test; type: in vivo, Triticum aestivum
In short: as §1

[7] = test system: velvetleaf; assay: Test A pre-/postemergence herbicide test; type: in vivo, Abutilon theophrasti; settings: 1000 g ai/ha
In short: as §1

[8] = test system: morningglory; assay: Test A pre-/postemergence herbicide test; type: in vivo, Ipomoea spp.; settings: 1000 g ai/ha
In short: as §1

[9] = test system: barnyardgrass; assay: Test C flooded paddy test; type: in vivo, Echinochloa crus-galli; settings: Flood
Description: as §2

[10] = test system: ducksalad; assay: Test C flooded paddy test; type: in vivo, Heteranthera limosa; settings: Flood
Description: as §2

[11] = test system: pigweed; assay: Test A pre-/postemergence herbicide test; type: in vivo, Amaranthus retroflexus
In short: as §1

[12] = test system: giant foxtail; assay: Test A pre-/postemergence herbicide test; type: in vivo, Setaria faberii
In short: as §1

[13] = test system: barnyardgrass; assay: Test B flooded paddy test; type: in vivo, Echinochloa crus-galli; settings: 500 g ai/ha, Flood; scale of 0 to 100 where 0 is no effect and 100 is complete control
In short: (§3)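 First, plants reach the 2-leaf stage; next, pots are flooded to 3 cm and compound is delivered into the water; finally, after 13 to 15 greenhouse days at constant depth, injury is graded visually from 0 to 100 against controls.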

[14] = test system: ragweed; assay: Test A pre-/postemergence herbicide test; type: in vivo, Ambrosia elatior
In short: as §1

[15] = test system: sedge, umbrella; assay: Test B flooded paddy test; type: in vivo, Cyperus difformis; settings: 500 g ai/ha, Flood; scale of 0 to 100 where 0 is no effect and 100 is complete control
In short: as §3

[16] = test system: ducksalad; assay: Test B flooded paddy test; type: in vivo, Heteranthera limosa; settings: 500 g ai/ha, Flood; scale of 0 to 100 where 0 is no effect and 100 is complete control
In short: as §3

[17] = test system: ryegrass, Italian; assay: Test A pre-/postemergence herbicide test; type: in vivo, Lolium multiflorum
In short: as §1

[18] = test system: galium; assay: Test A postemergence herbicide test; type: in vivo, Galium aparine
In short: (§4)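 Blackgrass and galium grown in pots of loam soil–sand blend, treated postemergence at 2–10 cm height, one- to two-leaf stage. Plants kept in greenhouse ~10 days, then visually rated for injury against untreated controls on a 0–100 scale (0 no effect, 100 complete control).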

[19] = test system: blackgrass; assay: Test A postemergence herbicide test; type: in vivo, Alopecurus myosuroides
In short: as §4

[20] = test system: rice; assay: Test B flooded paddy test; type: in vivo, Oryza sativa; settings: 500 g ai/ha, Flood; scale of 0 to 100 where 0 is no effect and 100 is complete control
In short: as §3

[21] = test system: kochia; assay: Test A pre-/postemergence herbicide test; type: in vivo, Kochia scoparia
In short: as §1

[22] = Postemergence, 1000 g ai/ha, 0 to 100 scale (0 no effect, 100 complete control)
[23] = Preemergence, 1000 g ai/ha, visual rating on 0 to 100 scale (0 no effect, 100 complete control), approx. 10 days
[24] = 31 g ai/ha, scale of 0 to 100 where 0 is no effect and 100 is complete control, 13 to 15 days
[25] = 62 g ai/ha, scale of 0 to 100 where 0 is no effect and 100 is complete control, 13 to 15 days
[26] = 125 g ai/ha, scale of 0 to 100 where 0 is no effect and 100 is complete control, 13 to 15 days
[27] = Postemergence, 0 to 100 scale (0 no effect, 100 complete control)
[28] = Preemergence, visual rating on 0 to 100 scale (0 no effect, 100 complete control), approx. 10 days
[29] = Postemergence, 125 g ai/ha, visual rating on 0 to 100 scale (0 no effect, 100 complete control), approx. 10 days
[30] = Postemergence, 500 g ai/ha, 0 to 100 scale (0 no effect, 100 complete control)
[31] = Preemergence, 125 g ai/ha, 0 to 100 scale where 0 is no effect and 100 is complete control
[32] = preemergence, 500 g ai/ha, 0 to 100 scale, 0 is no effect and 100 is complete control
[33] = 125 g ai/ha, visual rating on 0 to 100 scale (0 no effect, 100 complete control), approx. 10 days
[34] = 500 g ai/ha, 0 to 100 scale (0 no effect, 100 complete control)

In the case of `O=C1NCC(c2ccc(F)c(F)c2)C1C(=O)Nc1cccc(Cl)c1` (racemic) [Compound 18], the “Plant response rating, Corn” value [1, 22] is reported as 0, the “Plant response rating, Corn” value [1, 23] is reported as 0 and the “Plant response rating, Sedge, Umbrella” value [2, 24] is reported as 0. The “Plant response rating, Sedge, Umbrella” value [2, 25] was 0, the “Plant response rating, Sedge, Umbrella” value [2, 26] was 0 and the “Plant response rating, Sedge, Umbrella” value ([2]; 250 g ai/ha, scale 0 to 100) was 0. The “Plant response rating, Rice” value [3, 24] was 0, the “Plant response rating, Rice” value [3, 25] was 0 and the “Plant response rating, Rice” value [3, 26] was 0. For the same molecule, the “Plant response rating, Rice” value ([3]; 250 g ai/ha, scale 0 to 100) was 0, the “Plant response rating, Crabgrass, Large” value [4, 27] was 70 and the “Plant response rating, Crabgrass, Large” value [4, 28] was 80. For the same molecule, the “Plant response rating, Barnyardgrass” value [5, 22] was 50, the “Plant response rating, Barnyardgrass” value [5, 23] was 80 and the “Plant response rating, Wheat” value [6, 22] was 0. The “Plant response rating, Wheat” value [6, 23] was 0, the “Plant response rating, Velvetleaf” value [7, 27] was 0 and the “Plant response rating, Velvetleaf” value [7, 28] was 0. For the same molecule, the “Plant response rating, Morningglory” value [8, 27] was 0, the “Plant response rating, Morningglory” value [8, 28] was 0 and the “Plant response rating, Barnyardgrass” value [9, 24] was 0. For the same molecule, the “Plant response rating, Barnyardgrass” value [9, 25] was 0, the “Plant response rating, Barnyardgrass” value [9, 26] was 0 and the “Plant response rating, Barnyardgrass” value ([9]; 250 g ai/ha, scale 0 to 100) was 0. For the same molecule, the “Plant response rating, Ducksalad” value [10, 24] was 0, the “Plant response rating, Ducksalad” value [10, 25] was 0 and the “Plant response rating, Ducksalad” value [10, 26] was 0. The “Plant response rating, Ducksalad” value ([10]; 250 g ai/ha, scale 0 to 100) was 0, the “Plant response rating, Pigweed” value [11, 22] was 0 and the “Plant response rating, Pigweed” value [11, 23] was 0. For the same molecule, the “Plant response rating, Foxtail, Giant” value [12, 22] was 70 and the “Plant response rating, Foxtail, Giant” value [12, 23] was 80.

For `O=C1NCC(c2ccc(Cl)o2)C1C(=O)Nc1ccccc1F` (centres unmarked) [Compound 284], the “Plant response rating, Corn” value [1, 29] was 0, the “Plant response rating, Corn” value [1, 30] was 0 and the “Plant response rating, Barnyardgrass” value [13] was 0. The “Plant response rating, Ragweed” value [14, 29] was 0, the “Plant response rating, Ragweed” value [14, 30] was 0 and the “Plant response rating, Ragweed” value [14, 31] was 0. The “Plant response rating, Ragweed” value [14, 32] was 0, the “Plant response rating, Sedge, Umbrella” value [15] was 0 and the “Plant response rating, Ducksalad” value [16] was 80. The “Plant response rating, Ryegrass, Italian” value [17, 29] was 0, the “Plant response rating, Ryegrass, Italian” value [17, 30] was 0 and the “Plant response rating, Ryegrass, Italian” value [17, 31] was 0. The “Ryegrass, Italian plant response rating” value ([17]; Preemergence, 500 g ai/ha, visual rating on 0 to 100 scale (0 no effect, 100 complete control)) was 0, the “Plant response rating, Barnyardgrass” value [5, 29] was 0 and the “Plant response rating, Barnyardgrass” value [5, 30] was 50. The “Plant response rating, Barnyardgrass” value [5, 31] was 0, the “Plant response rating, Barnyardgrass” value [5, 32] was 60 and the “Plant response rating, Wheat” value [6, 29] was 0. The “Plant response rating, Wheat” value [6, 30] was 0, the “Plant response rating, Galium” value [18, 33] was 0 and the “Plant response rating, Galium” value [18, 34] was 60. The “Plant response rating, Blackgrass” value [19, 33] was 0, the “Plant response rating, Blackgrass” value [19, 34] was 0 and the “Plant response rating, Rice” value [20] was 10. For the same molecule, the “Plant response rating, Pigweed” value [11, 29] was 0, the “Plant response rating, Pigweed” value [11, 30] was 0 and the “Plant response rating, Pigweed” value [11, 31] was 0. For the same molecule, the “Plant response rating, Pigweed” value [11, 32] was 40, the “Plant response rating, Kochia” value [21, 29] was 0 and the “Plant response rating, Kochia” value [21, 30] was 0. For the same molecule, the “Plant response rating, Kochia” value [21, 31] was 0, the “Plant response rating, Kochia” value [21, 32] was 30 and the “Plant response rating, Foxtail, Giant” value [12, 29] was 0. For the same molecule, the “Plant response rating, Foxtail, Giant” value [12, 30] was 10, the “Plant response rating, Foxtail, Giant” value [12, 31] was 40 and the “Plant response rating, Foxtail, Giant” value [12, 32] was 70.

— patent publication US10294202B2, “Pyrrolidinones as herbicides” (FMC Corporation, priority 2013, dated 2019)
